Source: patent US7320981B2, “Variolin derivatives as anti-cancer agents” (Pharma Mar, S.A., priority 2000, dated 2008)
Like-named read-outs stand apart in the source and are kept apart here.

What was measured:
[1] = tested on: A-549; assay: SRB cell growth/viability assay, A-549; conditions: for GI50 / CC50: Homo sapiens, A549, 48 h; for GI50: read-out: GI50 (50% growth inhibition); for CC50: read-out: LC50 (50% net cell killing, cytotoxic effect); for TGI (total growth inhibition, cytostatic effect): Table 1, NSCL cell line A-549, 48 hours exposure, SRB
Source text: (§1) A colorimetric type of assay, using sulforhodamine B (SRB) reaction has been adapted for a quantitative measurement of cell growth and viability: see Skehan, P. A. et al. J. Natl. Cancer Inst., 1990, 82, 1107-1112. This form of the assay employs 96 well cell culture microplates of 9 mm diameter (Faircloth, G. T.; Stewart, D. and Clement, J. J., Journal of Tissue and Culture Methods, 1983, 11, 201-205; Mosmann, T. Journal of Immunological Methods, 1983, 65, 55-63.).
(§2) Most of the cell lines are obtained from American Type Culture Collection (ATCC) derived from different human cancer types. Cells are maintained in RPMI 1640 10% FBS, supplemented with 0.1 g/l penicillin and 0.1 g/l streptomycin sulfate and then incubated at 37° C., 5% CO2 and 98% humidity. For the experiments, cells were harvested from subconfluent cultures using trypsin and resuspended in fresh medium before plating.
(§3) Cells are seeded in 96 well microtiter plates, at 5×10^3 cells per well in aliquots of 195 μl medium, and they are allowed to attach to the plate surface by growing in drug free medium for 18 hours. Afterward, samples are in aliquots of 5 pi in a ranging from 10 to 10-8 μg/ml dissolved in DMSO/EtOH (0.2% in PS buffer). After 48 hours exposure, the antitumour effect are measured by the SRB methodology: cells are fixed by adding 50 μl of cold 50% (w/v) trichloroacetic acid (TCA) and incubating for 60 minutes at 4° C. Plates are washed with deionized water and dried. 100 μl of SRB solution (0.4% w/v in 1% acetic acid) is added to each microtiter well and incubated for 10 minutes at room temperature. Unbound SRB is removed by washing with 1% acetic acid. Plates are air-dried and bound stain is solubilized with Tris buffer. Optical densities are read on an automated spectrophotometric plate reader at a single wavelength of 490 nm.
(§4) The values for mean +/− SD of data from triplicate wells are calculated Some parameters for cellular responses can be calculated: […], TGI=total growth inhibition (cytostatic effect) and LC=cell killing (cytotoxic effect).

[2] = tested on: HT-29; assay: SRB cell growth/viability assay, HT-29; conditions: for GI50 / CC50: Homo sapiens, HT-29, 48 h; for GI50: read-out: GI50 (50% growth inhibition); for CC50: read-out: LC50 (50% net cell killing, cytotoxic effect); for TGI (total growth inhibition, cytostatic effect): Table 1, colon cell line HT-29, 48 hours exposure, SRB
Source text: as §1, §2, §3, §4

[3] = tested on: SW-620; assay: SRB cell growth/viability assay, SW-620; conditions: for GI50 / CC50: Homo sapiens, SW-620, 48 h; for GI50: read-out: GI50 (50% growth inhibition); for CC50: read-out: LC50 (50% net cell killing, cytotoxic effect); for TGI (total growth inhibition, cytostatic effect): Table 1, colon cell line SW-620, 48 hours exposure, SRB
Source text: as §1, §2, §3, §4

[4] = tested on: MEL-28; assay: SRB cell growth/viability assay, MEL-28; conditions: for GI50 / CC50: Homo sapiens, SK-MEL-28, 48 h; for GI50: read-out: GI50 (50% growth inhibition); for CC50: read-out: LC50 (50% net cell killing, cytotoxic effect); for TGI (total growth inhibition, cytostatic effect): Table 1, melanoma cell line MEL-28, 48 hours exposure, SRB
Source text: as §1, §2, §3, §4

[5] = tested on: OVCAR-3; assay: cells; assay type: cell-based; conditions: for GI50 / CC50: Homo sapiens; for GI50: read-out: GI50 (50% growth inhibition); for CC50: read-out: LC50 (50% net cell killing, cytotoxic effect)
Source text: Plates are washed with deionized water and dried.

[6] = tested on: A498; assay: SRB cell growth/viability assay, A498; conditions: for GI50 / CC50: Homo sapiens, A498, 48 h; for GI50: read-out: GI50 (50% growth inhibition); for CC50: read-out: LC50 (50% net cell killing, cytotoxic effect); for TGI (total growth inhibition, cytostatic effect): Table 1, kidney cell line A498, 48 hours exposure, SRB
Source text: as §1, §2, §3, §4

[7] = tested on: DU-145; assay: SRB cell growth/viability assay, DU-145; conditions: for GI50 / CC50: Homo sapiens, DU-145, 48 h; for GI50: read-out: GI50 (50% growth inhibition); for CC50: read-out: LC50 (50% net cell killing, cytotoxic effect); for TGI (total growth inhibition, cytostatic effect): Table 1, prostate cell line DU-145, 48 hours exposure, SRB
Source text: as §1, §2, §3, §4

[8] = tested on: MCF-7; assay: SRB cell growth/viability assay, MCF-7; conditions: for GI50 / CC50: Homo sapiens, MCF7, 48 h; for GI50: read-out: GI50 (50% growth inhibition); for CC50: read-out: LC50 (50% net cell killing, cytotoxic effect); for TGI (total growth inhibition, cytostatic effect): Table 1, breast cell line MCF-7, 48 hours exposure, SRB
Source text: as §1, §2, §3, §4

[9] = tested on: MB-231; assay: SRB cell growth/viability assay, MB-231; conditions: for GI50 / CC50: Homo sapiens, 48 h; for GI50: read-out: GI50 (50% growth inhibition); for CC50: read-out: LC50 (50% net cell killing, cytotoxic effect); for TGI (total growth inhibition, cytostatic effect): Table 1, breast cell line MB-231, 48 hours exposure, SRB
Source text: as §1, §2, §3, §4

[10] = Table 1, ovary cell line OVCAR-3, 48 hours exposure, SRB

Structure (SMILES)	GI50 [1] [nM]	CC50 [1] [nM]	TGI (total growth inhibition, cytostatic effect) [1] [M]	GI50 [2] [nM]	CC50 [2] [nM]	TGI (total growth inhibition, cytostatic effect) [2] [M]	GI50 [3] [nM]	CC50 [3] [nM]	TGI (total growth inhibition, cytostatic effect) [3] [M]	GI50 [4] [nM]	CC50 [4] [nM]	TGI (total growth inhibition, cytostatic effect) [4] [M]	GI50 [5, 10] [nM]	TGI (total growth inhibition, cytostatic effect) [5, 10] [M]	GI50 [6] [nM]	CC50 [6] [nM]	TGI (total growth inhibition, cytostatic effect) [6] [M]	GI50 [7] [nM]	CC50 [7] [nM]	TGI (total growth inhibition, cytostatic effect) [7] [M]	other results
CSc1nccc(-c2c3cccnc3n3c(N)nccc23)n1 [Compound 5, thiodeoxyvariolin]	1000	10000	3.E−06	600	10000	2.E−06	3000	30000	1.E−05	60	6000	3.E−07	1000	2.E−06	600	3000	2.E−06	300	3000	1.E−06	CC50 [5, 10]: 3000 nM; GI50 [8]: 2000 nM; CC50 [8]: 30000 nM; TGI (total growth inhibition, cytostatic effect) [8]: 6.E−06 M; GI50 [9]: 2000 nM; CC50 [9]: 10000 nM; TGI (total growth inhibition, cytostatic effect) [9]: 6.E−07 M
Nc1nccc(-c2c3cccnc3n3c(N)nccc23)n1 [Compound 4, deoxyvariolin B]	100	400	2.E−07	70	10000	2.E−07	70	10000	3.E−07	70	300	1.E−07	100	3.E−07	70	700	2.E−07	100	7000	3.E−07	CC50 ([5]; OVCAR-3, 48 h): 400 nM; GI50 [8]: 100 nM; CC50 [8]: 4000 nM; TGI (total growth inhibition, cytostatic effect) [8]: 3.E−07 M; GI50 [9]: 70 nM; CC50 [9]: 30000 nM; TGI (total growth inhibition, cytostatic effect) [9]: 3.E−07 M
